We go through three substances from patent US20110111016A1, “NON-DNA BASE-CONTAINING POLYNUCLEOTIDE COMPOSITIONS AND THEIR USE FOR THE MODULATION OF IMMUNE RESPONSES” (priority 2009, published 2011).

What all share (assay type): cell-based
For data set [1], the target named is T1, human TLR2 (Homo sapiens, UniProt O60603).
T1 construct: host or cells: HEK293
The data set can be described thus: NF-κB activation (secreted alkaline phosphatase reporter) in HEK293 cells expressing human TLR2. To be noted: HEK293/hTLR2 cell line; polynucleotide final concentration 10 μg/mL; 16-20 hours. The protocol:
(§1) Toll-like receptors (TLR) are known to interact with a number of natural and synthetic molecules that can function as immune adjuvants. Examples of these molecules are Poly (I:C) polynucleotides, lipopolysaccharide and CpG-containing polynucleotides. The interaction of non-DNA base-containing polynucleotides (SEQ ID NOs: 1-3) to interact with TLR and induce down-stream signaling was tested by assessing NF-κB activation in HEK293 cells expressing human TLR2, 3, 4, 5, 7, 8 and 9. TLR engagement was determined by measurement of secreted alkaline phosphatase, under the control of a reporter inducible by NF-κB. Appropriate positive controls were used for each TLR. The non-DNA base-containing polynucleotides were dissolved in sterile water at a concentration of 100 μg/mL, and used at a final concentration of 10 μg/mL. HEK293 cells containing the appropriate TLR and NF-κB reporting system (InvivoGen, San Diego, Calif., USA) were placed in wells of 96 well plates (25,000-50,000 cells, in a final volume of 200 μL medium designed for the detection of NF-κB induced secreted alkaline phosphatase expression), and incubated with non-DNA base-containing polynucleotides or positive controls for 16-20 hours. TLR activating activity was determined by measurement of absorbance at 650 nm wavelength using a Coulter AD340C absorbance detector. The results shown are expressed as Optical Density (OD).

Data set [2] has as its target T2, human TLR3 (Homo sapiens, UniProt O15455).
T2 construct: host or cells: HEK293
T2 sequence (O15455 24-904): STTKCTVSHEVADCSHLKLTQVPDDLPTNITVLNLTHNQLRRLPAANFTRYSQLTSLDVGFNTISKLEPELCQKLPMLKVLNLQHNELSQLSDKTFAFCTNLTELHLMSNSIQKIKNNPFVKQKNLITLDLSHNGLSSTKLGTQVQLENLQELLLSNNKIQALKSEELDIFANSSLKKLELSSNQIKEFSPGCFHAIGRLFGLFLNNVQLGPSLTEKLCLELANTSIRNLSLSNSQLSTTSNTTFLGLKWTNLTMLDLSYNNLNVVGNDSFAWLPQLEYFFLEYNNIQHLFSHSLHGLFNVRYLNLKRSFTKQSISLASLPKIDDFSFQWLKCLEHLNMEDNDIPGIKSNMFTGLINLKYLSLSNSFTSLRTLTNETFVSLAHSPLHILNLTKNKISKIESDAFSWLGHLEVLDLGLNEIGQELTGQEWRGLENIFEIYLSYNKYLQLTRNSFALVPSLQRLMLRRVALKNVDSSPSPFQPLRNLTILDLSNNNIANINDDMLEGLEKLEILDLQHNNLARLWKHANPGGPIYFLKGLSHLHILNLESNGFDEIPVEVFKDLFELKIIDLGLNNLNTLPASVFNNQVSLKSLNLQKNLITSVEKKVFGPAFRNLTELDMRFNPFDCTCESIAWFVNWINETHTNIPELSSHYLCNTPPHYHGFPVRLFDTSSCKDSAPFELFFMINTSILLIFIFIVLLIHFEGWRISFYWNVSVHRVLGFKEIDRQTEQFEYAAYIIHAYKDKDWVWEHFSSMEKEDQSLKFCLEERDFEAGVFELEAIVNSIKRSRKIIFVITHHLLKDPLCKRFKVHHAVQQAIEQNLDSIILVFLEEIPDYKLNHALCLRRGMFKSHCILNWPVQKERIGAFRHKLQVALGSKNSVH
The data set is described as follows: NF-κB activation (secreted alkaline phosphatase reporter) in HEK293 cells expressing human TLR3. To be noted: HEK293/hTLR3 cell line; polynucleotide final concentration 10 μg/mL; 16-20 hours. Here is the method: as §1

Data set [3] addresses T3, human TLR8 (Homo sapiens, UniProt Q9NR97).
T3 construct: host or cells: HEK293
T3 sequence (Q9NR97 27-1041): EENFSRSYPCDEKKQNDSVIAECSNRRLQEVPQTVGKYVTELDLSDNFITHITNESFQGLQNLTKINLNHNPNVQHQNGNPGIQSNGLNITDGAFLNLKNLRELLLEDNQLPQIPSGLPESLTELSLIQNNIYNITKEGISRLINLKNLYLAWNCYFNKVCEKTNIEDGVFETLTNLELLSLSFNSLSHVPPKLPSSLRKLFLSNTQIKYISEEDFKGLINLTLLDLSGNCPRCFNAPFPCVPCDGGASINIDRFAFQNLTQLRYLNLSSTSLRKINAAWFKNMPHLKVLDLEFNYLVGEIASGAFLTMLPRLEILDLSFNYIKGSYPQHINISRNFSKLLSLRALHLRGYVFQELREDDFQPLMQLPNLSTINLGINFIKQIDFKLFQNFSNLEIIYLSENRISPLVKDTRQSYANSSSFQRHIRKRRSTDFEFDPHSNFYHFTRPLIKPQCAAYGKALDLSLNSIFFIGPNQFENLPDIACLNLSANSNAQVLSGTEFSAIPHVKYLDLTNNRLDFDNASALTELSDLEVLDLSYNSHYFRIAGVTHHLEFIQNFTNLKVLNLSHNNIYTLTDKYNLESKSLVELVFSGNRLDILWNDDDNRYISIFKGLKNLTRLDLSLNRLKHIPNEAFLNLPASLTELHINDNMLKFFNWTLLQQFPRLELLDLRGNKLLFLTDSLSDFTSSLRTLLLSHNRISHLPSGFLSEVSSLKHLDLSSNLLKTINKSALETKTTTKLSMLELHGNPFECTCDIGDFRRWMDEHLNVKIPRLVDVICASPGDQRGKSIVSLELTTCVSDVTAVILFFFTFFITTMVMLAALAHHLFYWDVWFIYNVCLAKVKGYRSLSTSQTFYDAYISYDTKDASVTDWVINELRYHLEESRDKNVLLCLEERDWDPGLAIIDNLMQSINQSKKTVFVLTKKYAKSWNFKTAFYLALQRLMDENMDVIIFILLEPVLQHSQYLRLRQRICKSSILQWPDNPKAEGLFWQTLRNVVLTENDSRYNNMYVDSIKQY
The data set can be described thus: NF-κB activation (secreted alkaline phosphatase reporter) in HEK293 cells expressing human TLR8. To be noted: HEK293/hTLR8 cell line; polynucleotide final concentration 10 μg/mL; 16-20 hours. Here is the method:
as §1, with “The interaction of non-DNA base-containing polynucleotides (SEQ ID NOs: 1-3) to interact with TLR and induce down-stream signaling was tested by assessing NF-κB activation in HEK293 cells expressing human TLR2, 3, 4, 5, 7, 8 and 9.” left out

T1 sequence (O60603 21-784): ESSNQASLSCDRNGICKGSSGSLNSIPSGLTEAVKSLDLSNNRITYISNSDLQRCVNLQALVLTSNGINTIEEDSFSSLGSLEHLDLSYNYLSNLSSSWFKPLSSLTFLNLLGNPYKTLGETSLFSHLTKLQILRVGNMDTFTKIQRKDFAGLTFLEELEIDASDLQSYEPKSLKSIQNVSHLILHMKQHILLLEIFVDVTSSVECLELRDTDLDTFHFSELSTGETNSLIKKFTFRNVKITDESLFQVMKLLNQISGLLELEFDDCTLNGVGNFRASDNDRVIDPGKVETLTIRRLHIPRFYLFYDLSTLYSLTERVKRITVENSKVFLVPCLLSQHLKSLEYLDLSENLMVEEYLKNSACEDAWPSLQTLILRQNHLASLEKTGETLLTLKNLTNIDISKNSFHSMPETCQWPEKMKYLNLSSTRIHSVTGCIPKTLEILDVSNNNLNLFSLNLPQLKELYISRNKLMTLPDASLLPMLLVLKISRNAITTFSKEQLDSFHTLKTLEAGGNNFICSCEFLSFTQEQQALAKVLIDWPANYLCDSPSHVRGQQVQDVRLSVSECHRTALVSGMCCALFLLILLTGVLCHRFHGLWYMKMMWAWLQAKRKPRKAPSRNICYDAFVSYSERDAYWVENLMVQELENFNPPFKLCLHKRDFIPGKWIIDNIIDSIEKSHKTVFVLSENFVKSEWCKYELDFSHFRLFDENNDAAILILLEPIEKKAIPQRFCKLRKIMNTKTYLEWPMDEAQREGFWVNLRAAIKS

In the case of IIGTII [SEQ ID NO: 3], the “TLR activation, Optical Density at 650 nm, hTLR2” value in data set [1] amounted to 0.095. Also, in data set [2], the “TLR activation, Optical Density at 650 nm, hTLR3” value is recorded as 0.057. Besides, the “TLR activation, Optical Density at 650 nm, hTLR8” value in data set [3] came out at 0.128.
Turning to “NebGGTGNeb (DNA NGGTGN; Nebularine at both ends, sugar and linkages not given here, further chemistry not given here) [SEQ ID NO: 1, 5′-OH, 3′-OH non-DNA base-containing polynucleotide]”, the “TLR activation, Optical Density at 650 nm, hTLR2” value in data set [1] is 0.093. In addition, in data set [2], the “TLR activation, Optical Density at 650 nm, hTLR3” value is recorded as 0.055. In addition, in data set [3], the “TLR activation, Optical Density at 650 nm, hTLR8” value came out at 0.118.
For UUGTUU [SEQ ID NO: 2] the same measures were 0.095, 0.056 and 0.120.
